# Measured values: US20050181473A1, “Bacterial adpglucose pyrophospatase method for obtaining the latter and its use in the production of assay devices and in the obtention of transgenic plants and bacteria” (priority 2001, published 2005)
# Entries after “also recorded” stand apart in the source; their conditions may differ. Like-named read-outs stand apart in the source and are kept apart here.
# Target: bacterial AGPPase (Escherichia coli, UniProt Q93K97, L2V/N6S)
# Format: biochemical
# bacterial AGPPase, sequence (Q93K97 whole entry L2V/N6S, looked up): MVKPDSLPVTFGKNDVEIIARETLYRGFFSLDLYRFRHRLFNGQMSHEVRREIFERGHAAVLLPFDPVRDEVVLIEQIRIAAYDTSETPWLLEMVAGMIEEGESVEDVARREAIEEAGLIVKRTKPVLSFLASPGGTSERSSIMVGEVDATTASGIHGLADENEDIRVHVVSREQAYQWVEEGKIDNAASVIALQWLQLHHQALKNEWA
smiles,measurement,setting,value
O=C(O)[C@H](O)COP(=O)(O)O [3-phosphoglycerate],inhibition of AGPPase,,Inhibited
same,hydrolysis / recognition as substrate by AGPPase,pH 7.5,does not hydrolyze
"Nc1ncnc2c1ncn2[C@@H]1O[C@H](COP(=O)(O)OP(=O)(O)O[C@H]2O[C@H](CO)[C@@H](O)[C@H](O)[C@H]2O)[C@@H](O)[C@H]1O [ADPG, ADPglucose]",hydrolysis / recognition as substrate by AGPPase,pH 7.5,catalyzes the hydrolysis
Nc1ncnc2c1ncn2[C@@H]1O[C@H](COP(=O)(O)OP(=O)(O)O)[C@@H](O)[C@H]1O [ADP],inhibition of AGPPase,,Inhibited
Nc1ncnc2c1ncn2[C@@H]1O[C@H](COP(=O)(O)OP(=O)(O)O[C@H]2O[C@H](CO)[C@@H](O)[C@H](O)[C@@H]2O)[C@@H](O)[C@H]1O [ADPmannose],hydrolysis / recognition as substrate by AGPPase,pH 7.5,recognizes; also recorded: hydrolyzes
Nc1ncnc2c1ncn2[C@@H]1O[C@H](COP(=O)(O)OP(=O)(O)OC[C@H]2OC(O)[C@H](O)[C@@H]2O)[C@@H](O)[C@H]1O (stereo partly drawn) [ADPribose],hydrolysis / recognition as substrate by AGPPase,pH 7.5,recognizes; also recorded: hydrolyzes
Nc1ncnc2c1ncn2[C@@H]1O[C@H](COP(=O)(O)O)[C@@H](O)[C@H]1O [AMP],inhibition of AGPPase,,Inhibited
same,hydrolysis / recognition as substrate by AGPPase,pH 7.5,does not hydrolyze
Nc1ncnc2c1ncn2[C@@H]1O[C@H](COP(=O)(O)OP(=O)(O)OP(=O)(O)O)[C@@H](O)[C@H]1O [ATP],inhibition of AGPPase,,Inhibited
O=C(O)CN(CCN(CC(=O)O)CC(=O)O)CC(=O)O [EDTA],AGPPase activity affected by reducing and chelating agents,,adversely affected
"O=P(O)(O)O[C@H]1O[C@H](CO)[C@@H](O)[C@H](O)[C@H]1O [G1P, glucose-1-phosphate]",hydrolysis / recognition as substrate by AGPPase,pH 7.5,does not hydrolyze
"O=C[C@H](O)[C@@H](O)[C@H](O)[C@H](O)COP(=O)(O)O [G6P, glucose-6-phosphate]",hydrolysis / recognition as substrate by AGPPase,pH 7.5,does not hydrolyze
Nc1nc2c(ncn2[C@@H]2O[C@H](COP(=O)(O)OP(=O)(O)O[C@H]3O[C@H](CO)[C@@H](O)[C@H](O)[C@@H]3O)[C@@H](O)[C@H]2O)c(=O)[nH]1 [GDPmannose],hydrolysis / recognition as substrate by AGPPase,pH 7.5,does not recognize
O=C(O)[C@H]1O[C@H](OP(=O)(O)OP(=O)(O)OC[C@H]2O[C@@H](n3ccc(=O)[nH]c3=O)[C@H](O)[C@@H]2O)[C@H](O)[C@@H](O)[C@@H]1O [UDPglucuronic],hydrolysis / recognition as substrate by AGPPase,pH 7.5,does not recognize
O=[N+]([O-])c1ccc(OP(=O)(O)Oc2ccc([N+](=O)[O-])cc2)cc1 [bis-paranitrophenyl-phosphate],hydrolysis / recognition as substrate by AGPPase,pH 7.5,does not hydrolyze
Nc1ncnc2c1ncn2[C@@H]1O[C@@H]2COP(=O)(O)O[C@H]2[C@H]1O [cyclic AMP],hydrolysis / recognition as substrate by AGPPase,"37° C., Tris-HCl 50 mM pH 7.5, 5 mM MgCl2",Nor does it hydrolyze
N[C@@H](CCC(=O)O)C(=O)O [glutamate],AGPPase activity affected by reducing and chelating agents,,adversely affected
O=P(O)(O)OP(=O)(O)O [inorganic pyrophosphate],inhibition of AGPPase,,Inhibited
[Mg+2] [magnesium],requirement for optimum functioning of AGPPase,,requires
[O]=[Mo](=[O])([O-])[O-] [molybdate],inhibition of AGPPase,,strongly inhibited; also recorded: Inhibited strongly
O=P(O)(O)O [orthophosphate],inhibition of AGPPase,,not
N[C@@H](CS)C(=O)O [reduced cysteine],AGPPase activity affected by reducing and chelating agents,,adversely affected
N[C@@H](CCC(=O)N[C@@H](CS)C(=O)NCC(=O)O)C(=O)O [reduced glutathione],AGPPase activity affected by reducing and chelating agents,,adversely affected
OCCS [β-mercaptoethanol],AGPPase activity affected by reducing and chelating agents,,adversely affected
